According to US4873233A, “17-Substituted androsta-1,4-dien-3-one derivatives” (Farmitalia Carlo Erba S.p.a., priority 1987, dated 1989):

Target: T1, androgen receptor (Rattus norvegicus, UniProt P15207)
T1 sequence (P15207 1-902): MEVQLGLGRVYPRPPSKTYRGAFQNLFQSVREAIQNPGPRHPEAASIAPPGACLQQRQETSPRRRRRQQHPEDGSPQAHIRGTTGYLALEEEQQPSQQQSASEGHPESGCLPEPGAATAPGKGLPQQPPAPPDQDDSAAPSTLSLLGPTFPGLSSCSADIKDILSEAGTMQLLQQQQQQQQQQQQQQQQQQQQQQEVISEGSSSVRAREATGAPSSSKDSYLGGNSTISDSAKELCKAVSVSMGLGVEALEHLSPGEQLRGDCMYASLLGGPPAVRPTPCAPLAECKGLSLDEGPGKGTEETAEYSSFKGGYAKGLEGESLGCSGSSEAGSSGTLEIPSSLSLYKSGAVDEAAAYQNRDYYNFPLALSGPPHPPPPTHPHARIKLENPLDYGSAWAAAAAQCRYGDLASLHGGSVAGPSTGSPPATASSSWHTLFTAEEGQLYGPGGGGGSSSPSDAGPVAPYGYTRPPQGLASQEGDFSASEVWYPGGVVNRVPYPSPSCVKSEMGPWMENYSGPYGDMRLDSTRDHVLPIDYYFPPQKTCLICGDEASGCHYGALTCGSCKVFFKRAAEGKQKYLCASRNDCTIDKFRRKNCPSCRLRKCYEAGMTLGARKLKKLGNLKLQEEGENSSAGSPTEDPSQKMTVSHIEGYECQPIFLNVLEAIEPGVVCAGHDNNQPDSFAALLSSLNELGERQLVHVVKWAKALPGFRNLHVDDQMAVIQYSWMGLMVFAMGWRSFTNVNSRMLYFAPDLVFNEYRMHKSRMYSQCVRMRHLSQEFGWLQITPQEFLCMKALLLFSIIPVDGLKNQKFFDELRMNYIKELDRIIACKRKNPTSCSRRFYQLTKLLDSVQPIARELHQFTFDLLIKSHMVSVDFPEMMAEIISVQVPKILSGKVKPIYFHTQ
Test: Binding affinity to cytoplasmic androgen (rat prostate) receptors, dextran-coated charcoal adsorption technique
Method: Binding affinity to cytoplasmic androgen (rat prostate) receptors was determined by standard dextran-coated charcoal adsorption technique (Raynaud J. P. et al. J. Steroid. Biochem. 6, 615-622, 1975).
Prostatic tissue, obtained from both adrenalectomized and orchidectomized Sprague-Dawley rats, was homogenized (1:10 weight:vol ratio) in 10 mM Tris-HCl PH 7.4, containing 1.5 nM EDTA and 1 mM dithiothreitol, in motor driven tissue grinders. The homogenate was centrifuged at 105,000×g for 1 h at 2° C. Aliquots of cytosol (0.2 ml) were incubated for 2 h at 0° C. with various concentrations of the test compounds, in duplicate, and a fixed amount of [^3 H]-5α-dihydrotestosterone (DHT, final concentration 1 nM in 0.4 ml of incubation volume). Then, free radioactivity was adsorbed on 0.2 ml of dextran-coated charcoal suspension and after centrifugation at 1,500×g for 10 min, the bound radioactivity in the supernatant was determined by liquid scintillation in RIaluma.

Q: `C=C1C[C@H]2[C@@H]3CC[C@H](O)[C@@]3(C)CC[C@@H]2[C@@]2(C)C=CC(=O)C=C12` [6-methylenandrosta-1,4-diene-17β-ol-3-one] was tested. Which “affinity to the androgen receptor (in words)” value did it give?
A: very high affinity

Q: And the “times more potent than the correspondent 17-cheto-derivative (androgen receptor affinity)” value (versus 6-methylenandrosta-1,4-diene-3,17-dione)?
A: 76 times
